This data set can be described thus: physchem. The source says: The segments were synthesized at a cGMP facility using standard techniques for amino acid synthesis.

Converted amounts (≈) assume the structure as drawn. Peptide text beside a SMILES is read from it.

As for `CC[C@H](C)[C@H](NC(=O)[C@@H]1CCCN1C(=O)[C@H](C)NC(=O)CNC(=O)[C@@H]1CCCN1C(=O)[C@H](CCC(N)=O)NC(=O)[C@H](CO)NC(=O)[C@H](Cc1ccccc1)NC(=O)[C@H](Cc1ccccc1)NC(=O)[C@@H]1CCCN1C(=O)[C@H](CC(N)=O)NC(=O)[C@H](CCC(=O)O)NC(=O)[C@H](CCC(N)=O)NC(=O)[C@H](CC(C)C)NC(=O)[C@@H](NC(=O)[C@H](CS)NC(=O)[C@H](CCC(=O)O)NC(=O)[C@@H]1CCCN1C(=O)[C@H](CS)NC(=O)[C@H](CC(=O)O)NC(=O)[C@H](CCC(N)=O)NC(=O)[C@@H](NC(=O)[C@H](CC(=O)O)NC(=O)[C@@H]1CCCN1C(=O)[C@H](C)N)C(C)C)[C@@H](C)O)C(=O)O` [first amino acid segment] (H-APDVQDCPECTLQENPFFSQPGAPI-OH), the solubility – broadly, the dissolved amount per volume that the medium holds – is 1000 µg/mL (≈ 370 µM).
